Measurements reported in US20240294479A1, “POLYMORPHS OF 2-(3,5-DICHLOROPHENYL)-L,3-BENZOXAZOLE-6-CARBOXYLIC ACID” (HONOUR LAB LIMITED, priority 2021, published 2024).
Values after ≈ are worked out from the molar mass of the structure shown.

How the values were obtained:
[1] = Solubility of Tafamidis crystalline forms in water at different pH; type: physicochemical
Procedure: However the crystalline Forms of the present invention has water solubility greater than or equal to 3 μg/mL at pH 5 and below.
The solubility of Tafamidis crystallin Form HN3 in water at different pH is as follows: […]

[2] = at pH 5 and below; EMEA scientific discussion; cited from earlier work

solubility ([1]; pH 3, aqueous buffer) [µg/mL]	solubility ([1]; pH 4, aqueous buffer) [µg/mL]	solubility ([1]; pH 5, aqueous buffer) [µg/mL]	SMILES	water solubility [2] [µg/mL]
3 (≈ 9.74 µM)	3 (≈ 9.74 µM)	3 (≈ 9.74 µM)	O=C(O)c1ccc2nc(-c3cc(Cl)cc(Cl)c3)oc2c1 [Form HN3, 2-(3,5-dichlorophenyl)-1,3-benzoxazole-6-carboxylic acid]	
			O=C(O)c1ccc2nc(-c3cc(Cl)cc(Cl)c3)oc2c1 [Tafamidis (Form 1), 2-(3,5-dichlorophenyl)-1,3-benzoxazole-6-carboxylic acid]	< 2
